Assay results taken from US20120179089A1, “SUBSTITUTED BIPYRIDINES FOR USE IN ORGANIC LIGHT-EMITTING DEVICES” (Nitto Denko Corporation, priority 2010, published 2012).

Tests used:
[1] = system: CHO-K1 cells; assay: Optical microscope images of cells after red light irradiation; assay type: cell-based, Chinese Hamster; settings: ALA treated CHO-K1 cells after 30 J/cm^2 red light (630 nm) irradiation; FIG. 9B
[2] = system: CHO-K1 (Chinese Hamster Ovarian Cancer, ATCC, CRL-2243) cell line; assay: Conversion of ALA to protoporphyrin IX (PpIX) in cells, fluorescence emission; assay type: cell-based; settings: ALA 1 mM and 2 mM, about 16 hrs at 37° C.; fluorescence emission at 635 nm
[3] = system: CHO-K1 (Chinese Hamster Ovarian Cancer, ATCC, CRL-2243) cell line; assay: Efficacy study: ALA plus red OLED light, MTT cell viability; assay type: cell-based; settings: ALA about 1 mM or higher, 16 hrs incubation, OLED light (630 nm) dose of 30 J/cm^2, FIG. 10
[4] = Solubility observed on isolation; assay type: physicochemical
Procedure: 6,6′-di(benzo[d]thiazol-2-yl)-3,3′-bipyridine (17). A mixture of 9 (0.591 g, 2.03 mmol), 16 (0.700 g, 2.07 mmol), tetrakis(triphenylphosphine)palladium(0) (117 mg, 102 μmol), Na2CO3 (1.59 g, 15.0 mmol), H2O (15 mL) and THF (25 mL) was degassed with argon for about 20 min while stirring. The stirring reaction mixture was then maintained under argon at about 80° C. for about 19 h. Upon completion, the mixture was cooled to RT, filtered and the precipitate collected as a white solid (0.83 g, 97%).
2-(6′-(benzo[d]thiazol-2-yl)-3,3′-bipyridin-6-yl)benzo[d]oxazole (18). Following the procedure for 17, 11 (0.558 g, 2.03 mmol), 16 (0.700 g, 2.07 mmol),), tetrakis(triphenylphosphine)palladium(0) (117 mg, 102 μmol), Na2CO3 (1.59 g, 15.0 mmol), H2O (15 mL) and THF (25 mL) yielded an insoluble white solid (0.70 g, 84%) after filtration.

[5] = system: presumed ocular histoplasmosis; parameters: species or system person; settings: in vivo, iv
[6] = system: age-related macular degeneration; assay: Phototherapy of age-related macular degeneration with red light emitting OLED; assay type: in vivo, person; settings: about 6 mg/m^2 intravenously; retina illuminated about 15 minutes after start of infusion
[7] = system: pathological myopia; assay: Phototherapy of pathological myopia with red light emitting OLED; assay type: in vivo, person; settings: about 6 mg/m^2 intravenously; retina illuminated about 15 minutes after start of infusion

Structure (SMILES): NCC(=O)CCC(=O)O [ALA, 5-aminolevulinic acid]
- cell morphology / cell death by optical microscope [1]: significant cell death
- generation of PpIX [2]: confirmed
- cell death [3]: ≥ 90%

Structure (SMILES): c1ccc2sc(-c3ccc(-c4ccc(-c5nc6ccccc6s5)nc4)cn3)nc2c1 [Compound 17, 6,6′-di(benzo[d]thiazol-2-yl)-3,3′-bipyridine]
- solubility [4]: insoluble in numerous common organic solvents

Structure (SMILES): c1ccc2oc(-c3ccc(-c4ccc(-c5nc6ccccc6s5)nc4)cn3)nc2c1 [Compound 18, 2-(6′-(benzo[d]thiazol-2-yl)-3,3′-bipyridin-6-yl)benzo[d]oxazole]
- solubility [4]: insoluble

Structure (SMILES): C=Cc1c(C)c2cc3nc(cc4[nH]c(cc5nc(cc1[nH]2)C(C)=C5CCC(=O)O)c(CCC(=O)OC)c4C)[C@@]1(C)C3=CC=C(C(=O)OC)[C@H]1C(=O)OC [Verteporphin]
- patient's vision [5]: anticipated to be stabilized
- patient's vision [6]: anticipated to be stabilized
- patient's vision [7]: anticipated to be stabilized
